{
  "source": "patent US5912259A",
  "about": "“Method for treating and preventing neurodegenerative disorders by administering a thiazolidinone” (Warner-Lambert Company, priority 1998, dated 1999)",
  "key": {"[1]": {"assay": "Toxicology studies in dogs", "format": "in vivo, dog", "method": "As noted above, the thiazolidinone is additionally well-suited to treating elderly patients because of its long duration of action and its substantial lack of undesirable side effects. Toxicologic properties of the thiazolidinone were evaluated in single-dose oral and intravenous (IV) studies in mice and rats and multidose oral studies in rats and dogs. The thiazolidinone was tested in dogs and monkeys in escalating-dose oral toxicity to determine the most sensitive nonrodent species. […] The initial 13-week dog study was repeated to evaluate the reproducibility of the perivascular effects. Dose range-finding studies were performed in pregnant rats and rabbits, and genotoxic potential was assessed in vitro and in vivo. […] Based on exposure at the no-effect dose in definitive studies, the rat appears to be the most sensitive species followed by the dog and the monkey, albeit with minor differences in exposure between the species."}, "[2]": {"system": "IL-1β", "assay": "Production of cytokine IL-1β", "format": "cell-based"}},
  "data": [
    {"smiles": "CC(C)(C)c1cc(/C=C2\\SC(N)=NC2=O)cc(C(C)(C)C)c1O", "note": "[CI-1004, (Z)-5-[[3,5-bis(1,1-dimethylethyl)-4-hydroxyphenyl]methylene]-2-imino-4-thiazolidinone methanesulfonate]", "values": [
      {"measurement": "hepatic enzyme induction", "setting": "[1]", "value": "hepatic enzyme induction which was not associated with overt organ toxicity"},
      {"measurement": "gastrointestinal effects", "setting": "[1]; definitive 13-week studies", "value": "gastrointestinal effects"},
      {"measurement": "perivascular mononuclear infiltrates in brain", "setting": "[1]; initial 13-week study", "value": "perivascular mononuclear infiltrates in brain were observed"},
      {"measurement": "production of cytokine IL-1β", "setting": "[2]", "value": "blocks production of the cytokine IL-1β"}
    ]}
  ]
}
